Source: US20220105051A1, “COMPOUNDS FOR INCREASING MHC-I EXPRESSION AND MODULATING HISTONE DEACETYLASE ACTIVITY” (Cava Healthcare Inc., priority 2019, published 2022)
“Also recorded” adds a separate entry of the source.

Legend:
[1] = system: A9 metastatic tumour cells; test: In vivo tumour trial; set-up: species or system C57BL/6 mice; settings: daily i.p. for 12 days; for anti-tumour effect compared among the treatments / tumour volume / tumour growth compared to vehicle control: A9 tumours; for anti-tumour effect compared among the treatments: 5.2 mg/kg; for tumour volume / tumour growth compared to vehicle control / body weight: P02-113 and P03-97-1 5.2 mg/kg, TSA 0.5 mg/kg
Experimental: (§1) The metastatic cell line, A9, was grown in the DMEM, as previously described without, the addition of antibiotics (penicillin and streptomycin, P/S). Once cells reached 75-80% confluence, they were trypsinized (0.05%, Gibco) and washed with HBSS (Hanks balanced salt solution). The cells were counted using the Bio-RAD TC20 automated cell counter and suspended to a concentration of […] in HBSS. Thirty-two synergistic female C57BL/6 mice, between the ages 6-8 weeks, were subcutaneously injected in the right flank with 50 μL containing 5×10^4 A9 metastatic tumour cells. Seven days following tumour inoculation i.p. treatment began daily for 12 days. Four treatment groups were studied, with eight animals per group. […] Body weights were measured three times a week and once tumours developed they were measured with calipers and tumour volume was calculated. Twelve days after starting treatment, mice were euthanized and tumours were collected and weighed. The tumours were then processed for flow cytometry analysis. Tumours were cut into small pieces and incubated RPMI (Gibco; with P/S 0.5%, Sodium pyruvate 1%, and L-glutamine 1%) and 3 mg/mL collagenase A (Roche) for one hour at 37° C. with shaking. Dissociated tumour cells were passed through a 100 μm filter and spun down at 15,000×RCF for 3 minutes. The pellet was washed once in FACs buffer (2% FBS in PBS) and spun down. The pellet was next suspended in red blood cell (RBC) lysis buffer and kept at room temperature for 5 minutes before being neutralized by the addition of 5 ml of PBS and spun down. If pellets were still found to contain RBCs this step was repeated. Once all RBCs were removed cells were suspended in FACs buffer to a concentration of 10^7 cells/mL. A total volume of 200 ul of cells from each tumour were added to a 96 well plate (Falcon) and incubated with Fc Blocker (Biolegend, 1:400) for twenty minutes at 4° C. The 96 well plate was spun down at 1,200 rmp for three minutes and supernatant was removed. The cells were then suspended in 150 ul of FACs buffer containing anti-CD8a (PE-Cy7, 1:200, eBioscience) and CD4 (APC, 1:200, Biolegend) antibodies and incubated at 4° Celsius for 20 minutes. The cells were washed twice and spun down using FACs buffer before being to flow cytometry tubes in a final volume of 200 ul of FACs buffer containing 7AAD (Biolegend 1:200). Flow cytometry was performed on LSRII (BDBiosciences) and analysis was done using FlowJo (Flow cytometry Analysis Software).
Treatment of tumour-bearing mice with identified compounds. 5×10^4 A9 cells suspended in HBSS were subcutaneously (s.c.) transplanted into the right flank of 32 eight-week-old female C57BI/6 mice, as previously described 75. […] Body weight and tumours (once established) were measured every 2-4 days (more often as tumour size increased). Tumours were measured using calipers and volume was calculated as following: tumour volume=length×width^2. The tumour growth rate was assessed using methods previously described^28.

CD4+ and CD8+ T cells = test: Analysis of tumour-infiltrating lymphocytes; assay type: in vivo, C57BL/6 mice; settings: after 12 days of treatment, flow cytometry
Experimental: as §1
Analysis of tumour-infiltrating lymphocytes (TILs). Tumour-infiltrating T lymphocyte (either CD4^+ or CD8^+ T cells) infiltration was evaluated in tumours of mice following 2-week treatment with either compounds or controls. Tumours at the site of initial injection were removed from tumour-bearing mice. Following tumour dissociation in the presence of collagenase A (Roche) and erythrocyte lysis, the tumour cells were then washed and prepared as single-cell suspensions to detect TILs. Before staining with antibodies, the cells were incubated with Fc Blocker (Ebiosciences) for 20 minutes at 4° C. The tumour cells were then washed and stained with anti-CD4-APC (Biolegend), anti-CD8-PECy7 (eBiosciences) and 7-AAD (Biolegend) viability stain. Using flow cytometry, 7-AAD positive dead cells were gated out and the remaining population was assessed for CD4^+ and CD8^+ expression. Data were acquired using a BD™ LSR II flow cytometer (BD Biosciences) with FACSDiva™ software and analyzed with FlowJo software (Treestar).

HDAC1 = molecular target: T1, HDAC1 (Homo sapiens, UniProt Q13547); test: Individualized HDAC assay, HDAC1; assay type: biochemical; settings: purified enzyme, 5 to 0.02 μM
T1 construct: purchased BPS Biosciences
T1 sequence (Q13547 whole entry): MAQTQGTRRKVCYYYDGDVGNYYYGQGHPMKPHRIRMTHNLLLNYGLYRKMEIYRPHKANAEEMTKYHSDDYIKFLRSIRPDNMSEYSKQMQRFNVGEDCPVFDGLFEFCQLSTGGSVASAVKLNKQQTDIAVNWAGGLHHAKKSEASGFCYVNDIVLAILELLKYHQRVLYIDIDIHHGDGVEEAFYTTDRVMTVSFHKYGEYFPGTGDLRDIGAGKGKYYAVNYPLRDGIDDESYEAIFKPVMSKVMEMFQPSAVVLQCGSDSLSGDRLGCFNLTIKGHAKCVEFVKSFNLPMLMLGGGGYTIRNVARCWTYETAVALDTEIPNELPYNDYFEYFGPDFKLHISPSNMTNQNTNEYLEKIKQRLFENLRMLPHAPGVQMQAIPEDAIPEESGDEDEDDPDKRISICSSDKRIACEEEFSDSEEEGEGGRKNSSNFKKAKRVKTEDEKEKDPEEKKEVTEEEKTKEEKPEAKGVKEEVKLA
Experimental: (§2) The activity of the curcuphenol analogues was assessed with purified HDAC enzymes from all classes I, II, and IV, as well as a select member of HDAC class III (SIRT1). HDACs 1-9 and SIRT1 were evaluated using HDAC Fluorogenic Assay Kits (BPS Biosciences). All assays were completed in black-sided clear-bottom 96 well plates (PerkinElmer), and all treatments were plated in triplicates. Treatment started at 5 μM and was two-fold diluted to a concentration 0.02 μM. The assays were measured using the Synergy HI hybrid reader (BioTek) and Gen5 software (BioTek), excitation was set to 360 nm and detection was measured at 450 nm with a gain of 100. […] Luminescence was read 30 minutes after HDAC-Glo™I/II reagent was added using the Synergy HI hybrid reader (BioTek) and Gen5 software (Bio-Tek). […] The relative mean of activity of the HDAC being measured was determined and all wells that received treatment were divided this average, to give a percentage of activity.
(§3) To evaluate the effect of the compounds on specific HDACs, their activity was assessed with purified HDAC enzymes from all classes I, II, and IV, as well as a select member of HDAC class III (SIRT1). HDACs 1-9 and SIRT1 were evaluated using HDAC Fluorogenic Assay Kits (BPS Biosciences) following the manufacturer's recommendations. […] The assays were measured using the Synergy HI hybrid reader (BioTek) and Gen5 software (Bio-Tek). […]

HDAC3 = molecular target: T2, HDAC3 (Homo sapiens, UniProt O15379); test: Individualized HDAC assay, HDAC3; assay type: biochemical; settings: purified enzyme, 5 to 0.02 μM
T2 construct: purchased BPS Biosciences
T2 sequence (O15379 whole entry): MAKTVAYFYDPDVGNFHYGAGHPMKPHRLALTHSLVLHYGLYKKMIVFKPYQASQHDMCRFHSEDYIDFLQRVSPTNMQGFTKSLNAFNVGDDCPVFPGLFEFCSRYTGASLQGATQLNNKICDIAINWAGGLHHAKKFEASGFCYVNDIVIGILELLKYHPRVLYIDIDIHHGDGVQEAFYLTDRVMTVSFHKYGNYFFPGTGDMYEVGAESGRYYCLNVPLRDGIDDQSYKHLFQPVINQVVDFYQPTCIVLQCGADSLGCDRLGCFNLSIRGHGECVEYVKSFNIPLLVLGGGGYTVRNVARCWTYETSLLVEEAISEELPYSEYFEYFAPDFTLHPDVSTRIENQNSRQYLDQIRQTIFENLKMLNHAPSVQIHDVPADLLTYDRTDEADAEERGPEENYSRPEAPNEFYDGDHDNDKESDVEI
T2 sequence (Q9Y618 395-489 partner limits assumed): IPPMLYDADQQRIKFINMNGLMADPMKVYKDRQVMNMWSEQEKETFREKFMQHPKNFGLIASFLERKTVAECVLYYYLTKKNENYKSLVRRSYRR
Experimental: as §2, §3

SMILES	anti-tumour effect compared among the treatments [1]	tumour volume / tumour growth compared to vehicle control [1]	tumour volume / tumour growth compared to vehicle control ([1]; listed as PC-02-113)	body weight [1]	CD4+ T cell infiltration of tumours (CD4+ and CD8+ T cells)	CD8+ T cell (CTL) infiltration of tumours (CD4+ and CD8+ T cells)	HDAC1 activity (HDAC1)	HDAC3 activity (HDAC3)
CC(C)=CCCCc1ccc(C)cc1O [P02-113]	not found to be as significant as P03-97-1 or TSA; also recorded: slightly larger	reduced; also recorded: statistically significant reduction of tumour volume	suppresses growth of tumors	remained stable; also recorded: no significant changes	no significant infiltration or difference; also recorded: did not appear to increase	no significant change in CTL infiltration	no significant change in HDAC activity	no significant change in HDAC activity
COc1ccc(C(C)CCC=C(C)C)c(O)c1 (stereo not drawn) [P03-97-1]	significant anti-tumour effect; also recorded: greater reduction in tumour burden	reduced; also recorded: statistically significant reduction of tumour volume; also recorded: suppresses growth of tumors		remained stable; also recorded: no significant changes	no significant infiltration or difference; also recorded: did not appear to increase	greatest CD8+ infiltration; also recorded: increase in the CTL infiltration	no significant change in HDAC activity	no significant change in HDAC activity
